Measured values from patent publication US11427550B2, “5-fluorouracil compounds” (NUCORION PHARMACEUTICALS, INC., priority 2018, dated 2022).
Where two headings read alike, the source gives them in different places.

Assay: Tissue distribution following oral administration of reference compounds and the disclosed compounds
Format: in vivo, rats
Details: rat
Procedure: The liver specificity of the disclosed compounds is compared relative to a corresponding active compound in liver and other organs that could be targets of toxicity.
Reference compounds and the cyclic deoxyribonucleotide, acetal, and hemiaminal compounds are administered at 5-50 mg/kg to fasted rats by oral gavage. Plasma concentrations of the metabolites, and parent compounds in circulation and in the hepatic portal vein are determined by HPLC-UV, and the liver, small intestine, and other organ concentrations are measured by LC-MS using the standard chromatography method.

[1] = drug level in the blood 1 hour after oral administration at 5 mg/kg dose in rats (Table 1), read-out: Drugblood
[2] = drug level in the liver 1 hour after oral administration at 5 mg/kg dose in rats (Table 1), read-out: Drugliver
[3] = prodrug level in the blood 1 hour after oral administration at 5 mg/kg dose in rats (Table 2), read-out: Drugblood
[4] = prodrug level in the liver 1 hour after oral administration at 5 mg/kg dose in rats (Table 2), read-out: Drugliver

Row | concentration at 1 h [1] [ng/mL] | concentration at 1 h [2] [ng/g] | concentration at 1 h [3] [ng/mL] | concentration at 1 h [4] [ng/g] | Structure (SMILES)
1 | 3680 | 1220 | – | – | COc1ccc(C2O[C@@H]3[C@H](O2)[C@@H](C)O[C@H]3n2cc(F)c(=O)[nH]c2=O)cc1 (stereo partly drawn) [Compound 118, 5-Fluoro-1-((3aR,4R,6R,6aR)-2-(4-methoxyphenyl)-6-methyltetrahydrofuro[3,4-d][1,3]dioxol-4-yl)pyrimidine-2,4(1H,3H)-dione]
2 | – | – | 158 | 2560 | CCCCCCCCOP1(=O)OC[C@H]2O[C@@H](n3cc(F)c(=O)[nH]c3=O)C[C@@H]2O1 (stereo partly drawn) [Compound 202, 5-Fluoro-1-((4aR,6R,7aS)-2-(octyloxy)-2-oxidotetrahydro-4H-furo[3,2-d][1,3,2]dioxaphosphinin-6-yl)pyrimidine-2,4(1H,3H)-dione]
3 | – | – | < 1 | < 6 | C[C@H](NP(=O)(OC[C@H]1O[C@@H](n2cc(F)c(=O)[nH]c2=O)C[C@@H]1O)Oc1cccc2ccccc12)C(=O)OCc1ccccc1 (stereo partly shown) [NUC-3373, reference compound]
4 | 3.66 | < 6 | – | – | O=c1[nH]c(=O)n([C@H]2C[C@@H]3OP(=O)(OCc4ccc(C(F)(F)F)cc4)OC[C@H]3O2)cc1F (stereo partly drawn) [Compound 156, 5-Fluoro-1-((4aR,6R,7aS)-2-oxido-2-((4-(trifluoromethyl)benzyl)oxy)tetrahydro-4H-furo[3,2-d][1,3,2]dioxaphosphinin-6-yl)pyrimidine-2,4(1H,3H)-dione]
5 | – | – | 20 | 49.9 | O=c1[nH]c(=O)n([C@H]2C[C@@H]3OP(=O)(OCc4ccc(F)cc4C4OCCO4)OC[C@H]3O2)cc1F (stereo partly drawn) [Compound 219, 1-((4aR,6R,7aS)-2-((2-(1,3-Dioxolan-2-yl)-4-fluorobenzyl)oxy)-2-oxidotetrahydro-4H-furo[3,2-d][1,3,2]dioxaphosphinin-6-yl)-5-fluoropyrimidine-2,4(1H,3H)-dione]
6 | – | – | 29.4 | 429 | O=c1[nH]c(=O)n([C@H]2C[C@@H]3OP(=O)(OCCCC4CCCC4)OC[C@H]3O2)cc1F (stereo partly drawn) [Compound 207, 5-Fluoro-1-((4aR,6R,7aS)-2-(3-cyclopentylpropyloxy)-2-oxidotetrahydro-4H-furo[3,2-d][1,3,2]dioxaphosphinin-6-yl)pyrimidine-2,4(1H,3H)-dione]
7 | – | – | 21.7 | 255 | O=c1[nH]c(=O)n([C@H]2C[C@@H]3OP(=O)(OCC4(c5ccccc5)CC4)OC[C@H]3O2)cc1F (stereo partly drawn) [Compound 217, 5-Fluoro-1-((4aR,6R,7aS)-2-oxido-2-((1-phenylcyclopropyl)methoxy)tetrahydro-4H-furo[3,2-d][1,3,2]dioxaphosphinin-6-yl)pyrimidine-2,4(1H,3H)-dione]
8 | – | – | 109 | 1040 | CCCCCCCOP1(=O)OC[C@H]2O[C@@H](n3cc(F)c(=O)[nH]c3=O)C[C@@H]2O1 (stereo partly drawn) [Compound 201, 5-Fluoro-1-((4aR,6R,7aS)-2-(heptyloxy)-2-oxidotetrahydro-4H-furo[3,2-d][1,3,2]dioxaphosphinin-6-yl)pyrimidine-2,4(1H,3H)-dione]
9 | < 1 | < 6 | – | – | CCc1ccc(COP2(=O)OC[C@H]3O[C@@H](n4cc(F)c(=O)[nH]c4=O)C[C@@H]3O2)cc1 (stereo partly drawn) [Compound 147, 1-((4aR,6R,7aS)-2-(4-Ethylbenzyloxy)-2-oxidotetrahydro-4H-furo[3,2-d][1,3,2]dioxaphosphinin-6-yl)-5-fluoropyrimidine-2,4(1H,3H)-dione]
10 | 1350 | 978 | – | – | C[C@H]1O[C@@H](n2cc(F)c(=O)[nH]c2=O)[C@@H]2OC(c3ccc(O)cc3)O[C@@H]21 (stereo partly drawn) [Compound 116, 5-Fluoro-1-((3aR,4R,6R,6aR)-2-(4-hydroxyphenyl)-6-methyltetrahydrofuro[3,4-d][1,3]dioxol-4-yl)pyrimidine-2,4(1H,3H)-dione]
11 | 7.81 | < 6 | – | – | O=c1[nH]c(=O)n([C@H]2C[C@@H]3OP(=O)(OCc4ccc(Cl)cc4)OC[C@H]3O2)cc1F (single isomer, unassigned) [Compound 127]
12 | 83.9 | 373 | – | – | CCOCOC1[C@@H](O)[C@H](n2cc(F)c(=O)n(COCC)c2=O)O[C@@H]1C (stereo in doubt) [Compound 109, 1-((2R,3R,4R,5R)-4-(Ethoxymethoxy)-3-hydroxy-5-methyltetrahydrofuran-2-yl)-3-(ethoxymethyl)-5-fluoropyrimidine-2,4(1H,3H)-dione]
13 | 59.9 | 1370 | – | – | CCCCCCCCCOP1(=O)OC[C@H]2O[C@@H](n3cc(F)c(=O)[nH]c3=O)C[C@@H]2O1 (stereo partly drawn) [Compound 132, 5-Fluoro-1-((4aR,6R,7aS)-2-(nonyloxy)-2-oxidotetrahydro-4H-furo[3,2-d][1,3,2]dioxaphosphinin-6-yl)pyrimidine-2,4(1H,3H)-dione]
14 | 11.3 | < 6 | – | – | O=c1[nH]c(=O)n([C@H]2C[C@@H]3OP(=O)(OCc4ccccc4F)OC[C@H]3O2)cc1F (stereo partly drawn) [Compound 139, 1-((4aR,6R,7aS)-2-(2-Fluorobenzyloxy)-2-oxidotetrahydro-4H-furo[3,2-d][1,3,2]dioxaphosphinin-6-yl)-5-fluoropyrimidine-2,4(1H,3H)-dione]
15 | – | – | 88.4 | 44.7 | CCCCCOC(=O)Nc1nc(=O)n([C@@H]2O[C@H](C)[C@@H](O)[C@H]2O)cc1F [Capecitabine, reference compound]
16 | – | – | 122 | 944 | O=c1[nH]c(=O)n([C@H]2C[C@@H]3OP(=O)(OCCCc4ccccc4)OC[C@H]3O2)cc1F (stereo partly drawn) [Compound 220, 5-Fluoro-1-((4aR,6R,7aS)-2-(3-phenylpropyloxy)-2-oxidotetrahydro-4H-furo[3,2-d][1,3,2]dioxaphosphinin-6-yl)pyrimidine-2,4(1H,3H)-dione]

Row | Structure (SMILES) | concentration at 1 h [1] [ng/mL] | concentration at 1 h [2] [ng/g] | concentration at 1 h [3] [ng/mL] | concentration at 1 h [4] [ng/g]
17 | O=c1[nH]c(=O)n([C@H]2C[C@@H]3OP(=O)(Oc4ccccc4)OC[C@H]3O2)cc1F (stereo partly drawn) [Compound 122, 5-Fluoro-1-((4aR,6R,7aS)-2-oxido-2-phenoxytetrahydro-4H-furo[3,2-d][1,3,2]dioxaphosphinin-6-yl)pyrimidine-2,4(1H,3H)-dione] | 301 | 1980 | – | –
